Measurements reported in PMC9430695.
Like-named read-outs stand apart in the source and are kept apart here.

Legend:
Sortase A (SrtA) [1] = molecular target: T1, Sortase A (SrtA) (Staphylococcus aureus, UniProt Q2FV99); assay: biochemical; design: FRET cleavage of Abz-LPATG-Dap(Dnp)-NH2 by purified SrtA, fluorescence 309/420 nm
T1 construct: SrtA residues Gln-60-Lys-206 (SrtA ΔN59), from S. aureus USA300, 6 × His tag
Procedure: Fluorescence resonant energy transfer (FRET) was used to screen the effect of the SrtA inhibitor ([22]). Purified SrtA (4 μM) and hibifolin with different concentrations were added into a 100 μL reaction system, incubating at 37°C for 1 h. A fluorescent substrate peptide Abz-LPATG-Dap (Dnp)-NH2 (10 μM) (Beijing, China) was added to initiate the reaction. After incubating at 37°C for 20 min, the fluorescent microplate reader was measured with the excitation wavelength at 309 nm and the emission wavelength at 420 nm. Subsequently, a gradient concentration inhibition curve was performed and IC50 was calculated. When the inhibitory activity was greater than 60%, the compound was considered a potential inhibitor. The representative list of our nature compounds library has been compiled in Table S3 in Supplemental File 1 along with the results of the initial screening.

Sortase A (SrtA) [2] = molecular target: T1, Sortase A (SrtA); assay: fluorescence quenching (KA); also FRET inhibition of purified SrtA, IC50 […]; format: binding; conditions: read-out: fluorescence quenching (KA), IC50 31.20 μ (converted)
[3] = library screen, read-out: Relative inhibition rate (%)
[4] = read-out: SrtA relative inhibition rate (%)

T1 sequence (Q2FV99 60-206): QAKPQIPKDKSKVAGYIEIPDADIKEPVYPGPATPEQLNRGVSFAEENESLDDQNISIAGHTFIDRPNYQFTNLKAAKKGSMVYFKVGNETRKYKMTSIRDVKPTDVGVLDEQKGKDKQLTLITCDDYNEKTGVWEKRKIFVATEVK

**Q.** `O=C(O[C@H]1[C@H](Oc2c(-c3ccc(O)c(O)c3)oc3cc(O)cc(O)c3c2=O)O[C@H](CO)[C@H](O)[C@@H]1O)c1cc(O)c(O)c(O)c1` [2"-O-Galloylhyperin] was tested. Which inhibition at 64 µg/mL (Sortase A (SrtA) [1]; [3]) did it give?
**A.** Its inhibition at 64 µg/mL is 42.4%.

**Q.** For `COc1ccc(-c2cc(=O)c3c(OC)cc(OC)c(OC)c3o2)cc1` [5,7,8,4'-Tetramethoxyflavone], which inhibition at 64 µg/mL (Sortase A (SrtA) [1]; [3]) is on record?
**A.** Its inhibition at 64 µg/mL is 27.4%.

**Q.** For `COc1ccc(-c2cc(=O)c3c(O)c(OC)c(OC)c(OC)c3o2)cc1OC` [5-Demethylnobiletin], which inhibition at 64 µg/mL (Sortase A (SrtA) [1]; [3]) is on record?
**A.** The inhibition at 64 µg/mL was 54.3%.

**Q.** `COc1ccc(-c2coc3cc(OC)ccc3c2=O)cc1` [7,4'-Dimethoxyisoflavone] was tested. Which inhibition at 64 µg/mL (Sortase A (SrtA) [1]; [3]) did it give?
**A.** Its inhibition at 64 µg/mL is 44%.

**Q.** How did the inhibition at 64 µg/mL (Sortase A (SrtA) [1]; [3]) turn out when `C/C=C/c1cc(OC)c2c(c1)[C@@H](C)[C@H](c1ccc3c(c1)OCO3)O2` [(-)-Licarin B] was run?
**A.** The inhibition at 64 µg/mL was 38.9%.

**Q.** Which inhibition at 64 µg/mL (Sortase A (SrtA) [1]; [3]) does the source give for `COc1cc(C[C@H](C)[C@H](C)Cc2ccc3c(c2)OCO3)ccc1O` [Anwulignan] here?
**A.** The inhibition at 64 µg/mL was 15.6%.

**Q.** For `COc1ccc(-c2oc3cc(OC)c(OC)c(O)c3c(=O)c2OC)cc1OC` [Artemetin], which inhibition at 64 µg/mL (Sortase A (SrtA) [1]; [3]) is on record?
**A.** Its inhibition at 64 µg/mL is 32.8%.

**Q.** `O=c1c(O[C@@H]2O[C@@H](CO)[C@H](O)[C@H]2O)c(-c2ccc(O)c(O)c2)oc2cc(O)cc(O)c12` [Avicularin] was tested. Which inhibition at 64 µg/mL (Sortase A (SrtA) [1]; [3]) did it give?
**A.** Its inhibition at 64 µg/mL is 45.3%.

**Q.** With `COc1ccc(-c2cc(=O)c3c(O)cc(O)cc3o2)cc1-c1c(O)cc(O)c2c(=O)cc(-c3ccc(O)cc3)oc12` [Bilobetin] as the compound, how does the inhibition at 64 µg/mL (Sortase A (SrtA) [1]; [3]) read?
**A.** Its inhibition at 64 µg/mL is 17.8%.

**Q.** With `COc1cc(-c2oc3cc(OC)c(OC)c(O)c3c(=O)c2OC)ccc1O` [Chrysosplenetin] as the compound, how does the inhibition at 64 µg/mL (Sortase A (SrtA) [1]; [3]) read?
**A.** The inhibition at 64 µg/mL was 34.2%.

**Q.** How did the inhibition at 64 µg/mL (Sortase A (SrtA) [1]; [3]) turn out when `CC(C)=CCC/C(C)=C/Cc1cc(-c2coc3cc(O)ccc3c2=O)ccc1O` [Corylifol A] was run?
**A.** Its inhibition at 64 µg/mL is 36.8%.

**Q.** `O=c1cc(-c2ccc(O)cc2)oc2cc(O[C@@H]3O[C@H](CO)[C@@H](O)[C@H](O)[C@H]3O)cc(O)c12` [Cosmosiin] was tested. Which inhibition at 64 µg/mL (Sortase A (SrtA) [1]; [3]) did it give?
**A.** The inhibition at 64 µg/mL was 46.8%.

**Q.** How did the inhibition at 64 µg/mL (Sortase A (SrtA) [1]; [3]) turn out when `COc1ccc([C@@H]2OC[C@H]3[C@@H]2CO[C@@H]3c2ccc(O[C@@H]3O[C@H](CO)[C@@H](O)[C@H](O)[C@H]3O)c(OC)c2)cc1OC` [Forsythin] was run?
**A.** The inhibition at 64 µg/mL was 14.8%.

**Q.** With `COc1cc(O)c2c(=O)cc(-c3ccc(OC)c(-c4c(O)cc(O)c5c(=O)cc(-c6ccc(O)cc6)oc45)c3)oc2c1` [Ginkgetin] as the compound, how does the inhibition at 64 µg/mL (Sortase A (SrtA) [1]; [3]) read?
**A.** Its inhibition at 64 µg/mL is 0.25%.

**Q.** `O=c1cc(-c2ccc(Oc3c(O)cc4oc(-c5ccc(O)cc5)cc(=O)c4c3O)cc2)oc2cc(O)cc(O)c12` [Hinokiflavone] was tested. Which inhibition at 64 µg/mL (Sortase A (SrtA) [1]; [4]) did it give?
**A.** The inhibition at 64 µg/mL was 36.2%.

**Q.** `COc1c(O)cc2oc(-c3ccc(O)cc3)cc(=O)c2c1O` [Hispidulin] was tested. Which inhibition at 64 µg/mL (Sortase A (SrtA) [1]; [3]) did it give?
**A.** Its inhibition at 64 µg/mL is 50%.

**Q.** For `COc1cc(-c2coc3cc(O)c(OC)c(O)c3c2=O)cc(O)c1OC` [Irigenin], which inhibition at 64 µg/mL (Sortase A (SrtA) [1]; [3]) is on record?
**A.** Its inhibition at 64 µg/mL is 30.3%.

**Q.** For `COc1cc2c(c(OC)c1OC)-c1c(cc3c(c1OC)OCO3)[C@H](OC(C)=O)[C@H](C)[C@H](C)C2` [Kadsurin], which inhibition at 64 µg/mL (Sortase A (SrtA) [1]; [3]) is on record?
**A.** Its inhibition at 64 µg/mL is 16.9%.

**Q.** Which inhibition at 64 µg/mL (Sortase A (SrtA) [1]; [3]) does the source give for `COc1ccc(-c2oc3cc(OC)cc(O)c3c(=O)c2OC)cc1` [Kaempferol 3,7,4'-trimethyl ether] here?
**A.** Its inhibition at 64 µg/mL is 32.6%.

**Q.** For `O=c1c(O[C@@H]2O[C@H](CO)[C@@H](O)[C@H](O)[C@H]2O[C@@H]2OC[C@@H](O)[C@H](O)[C@H]2O)c(-c2ccc(O)cc2)oc2cc(O)cc(O)c12` [Leucoside], which inhibition at 64 µg/mL (Sortase A (SrtA) [1]; [3]) is on record?
**A.** Its inhibition at 64 µg/mL is 27.3%.

**Q.** Which inhibition at 64 µg/mL (Sortase A (SrtA) [1]; [3]) does the source give for `O=C(/C=C/c1ccc(O)c2c1[C@H](C(=O)O)[C@@H](c1ccc(O)c(O)c1)O2)O[C@H](Cc1ccc(O)c(O)c1)C(=O)O` [Lithospermic acid] here?
**A.** Its inhibition at 64 µg/mL is 51.7%.

**Q.** For `C=CCc1cc(OC)c(O[C@@H](C)[C@H](O)c2ccc(O)c(OC)c2)c(OC)c1` [Myrislignan], which inhibition at 64 µg/mL (Sortase A (SrtA) [1]; [3]) is on record?
**A.** The inhibition at 64 µg/mL was 1.72%.

**Q.** How did the inhibition at 64 µg/mL (Sortase A (SrtA) [1]; [3]) turn out when `COc1cc(-c2oc3cc(O)cc(O)c3c(=O)c2O[C@@H]2O[C@H](CO[C@@H]3O[C@@H](C)[C@H](O)[C@@H](O)[C@H]3O)[C@@H](O)[C@H](O)[C@H]2O)ccc1O` [Narcissin] was run?
**A.** Its inhibition at 64 µg/mL is 44.5%.

**Q.** How did the inhibition at 64 µg/mL (Sortase A (SrtA) [1]; [3]) turn out when `Oc1cc(O)c2c(c1)O[C@H](c1ccc(O)c(O)c1)[C@H](O)[C@H]2c1c(O)cc(O)c2c1O[C@H](c1ccc(O)c(O)c1)[C@H](O)C2` [Procyanidin B2] was run?
**A.** The inhibition at 64 µg/mL was 13.8%.

**Q.** With `O=c1c(O[C@@H]2O[C@H](CO)[C@@H](O)[C@H](O)[C@H]2O[C@@H]2O[C@H](CO)[C@@H](O)[C@H](O)[C@H]2O)c(-c2ccc(O)c(O)c2)oc2cc(O)cc(O)c12` [Quercetin 3-O-sophoroside] as the compound, how does the inhibition at 64 µg/mL (Sortase A (SrtA) [1]; [3]) read?
**A.** Its inhibition at 64 µg/mL is 37.8%.

**Q.** With `O=c1cc(-c2ccc(O)cc2)oc2cc(O)c(O)c(O)c12` [Scutellarein] as the compound, how does the inhibition at 64 µg/mL (Sortase A (SrtA) [1]; [3]) read?
**A.** The inhibition at 64 µg/mL was 42.1%.

**Q.** With `COC(=O)[C@H]1O[C@@H](Oc2cc3oc(-c4ccc(O)cc4)cc(=O)c3c(O)c2O)[C@H](O)[C@@H](O)[C@@H]1O` [Scutellarin Methyl Ester] as the compound, how does the inhibition at 64 µg/mL (Sortase A (SrtA) [1]; [4]) read?
**A.** Its inhibition at 64 µg/mL is 73.8%.

**Q.** For `COc1ccc(-c2cc(=O)c3c(OC)c(OC)c(OC)cc3o2)cc1OC` [Sinensetin], which inhibition at 64 µg/mL (Sortase A (SrtA) [1]; [3]) is on record?
**A.** The inhibition at 64 µg/mL was 23.8%.

**Q.** For `O=c1c(-c2ccc(O[C@@H]3O[C@H](CO)[C@@H](O)[C@H](O)[C@H]3O)cc2)coc2cc(O)cc(O)c12` [Sophoricoside], which inhibition at 64 µg/mL (Sortase A (SrtA) [1]; [3]) is on record?
**A.** The inhibition at 64 µg/mL was 14.4%.

**Q.** `COc1ccc(-c2oc3cc(O)cc(O)c3c(=O)c2O)cc1O` [Tamarixetin] was tested. Which inhibition at 64 µg/mL (Sortase A (SrtA) [1]; [4]) did it give?
**A.** The inhibition at 64 µg/mL was 26.2%.

**Q.** With `O=C1c2c(O)cc(O)cc2O[C@H](c2ccc(O)c(O)c2)[C@H]1O` [Taxifolin] as the compound, how does the inhibition at 64 µg/mL (Sortase A (SrtA) [1]; [4]) read?
**A.** The inhibition at 64 µg/mL was 56%.

**Q.** For `COc1c(O[C@@H]2O[C@H](CO)[C@@H](O)[C@H](O)[C@H]2O)cc2occ(-c3ccc(O)cc3)c(=O)c2c1O` [Tectoridin], which inhibition at 64 µg/mL (Sortase A (SrtA) [1]; [3]) is on record?
**A.** The inhibition at 64 µg/mL was 20%.

**Q.** `O=c1cc(-c2ccc(O)cc2)oc2c([C@@H]3O[C@H](CO)[C@@H](O)[C@H](O)[C@H]3O)c(O)c([C@@H]3O[C@H](CO)[C@@H](O)[C@H](O)[C@H]3O)c(O)c12` [Vicenin-2] was tested. Which inhibition at 64 µg/mL (Sortase A (SrtA) [1]; [4]) did it give?
**A.** Its inhibition at 64 µg/mL is 67.6%.

**Q.** How did the inhibition at 64 µg/mL (Sortase A (SrtA) [1]; [4]) turn out when `C[C@@H]1O[C@@H](Oc2cc(O)c3c(=O)c(O)c(-c4ccc(O)c(O)c4)oc3c2)[C@H](O)[C@H](O)[C@H]1O` [Vincetoxicoside B] was run?
**A.** The inhibition at 64 µg/mL was 57.2%.

**Q.** For `O=C(O)[C@H]1O[C@@H](Oc2c(O)cc(O)c3c(=O)c(O)c(-c4ccc(O)c(O)c4)oc23)[C@H](O)[C@@H](O)[C@@H]1O` [hibifolin], which inhibition at 64 µg/mL (Sortase A (SrtA) [1]; [3]) is on record?
**A.** The inhibition at 64 µg/mL was 65.3%.

**Q.** What about the inhibition at 64 µg/mL (Sortase A (SrtA) [1]; [4]) of the same compound?
**A.** Its inhibition at 64 µg/mL is 74.6%.

**Q.** And the Kd (Sortase A (SrtA) [2])?
**A.** The Kd was 58.1 µM.
